Data taken from patent publication US11186577B2, “Vasopressin receptor antagonists and products and methods related thereto” (BlackThorn Therapeutics, Inc., priority 2017, dated 2021).
Read-outs that look alike come from different tables or passages of the source.

Columns and labels:
Assay type in all cases: in vitro ADME
[1] = system: MDR1 (P-glycoprotein); assay: MDR1-MDCK effective efflux assay (Transwell, 10 μM, 1 hour), MDR1-MDCK cells; conditions: dog
Procedure, shortened: (§1)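 Wild-type and MDR1-MDCK monolayers cultured 3 days were dosed with compound at 10 μM (0.1% DMSO) in HBSS/25 mM HEPES pH 7.4, in both A>B and B>A directions, for 1 h at 37 °C. Samples were quantified by LC-MS/MS to give Papp and efflux ratio. Effective efflux ratio = ER(MDR1-MDCK)/ER(wild-type); Lucifer Yellow checked monolayer integrity.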

[2] = MDR1-MDCK effective efflux assay (Transwell, 10 μM, 1 hour), wild-type MDCK cells; conditions: dog, MDCK
Procedure, shortened: as §1

[3] = system: MDR1-MDCK cells; assay: MDR1-MDCK effective efflux assay (Transwell, 10 μM, 1 hour), MDR1-MDCK cells; conditions: for MDR1 EER / MDR1 ER: MDCK-MDR1; for Papp AB MDR1: MDR1-MDCK cells, apical to basolateral (A>B), 10 μM, 1 hour
Procedure, shortened: as §1

[4] = system: wild-type (WT) MDCK cells; assay: MDR1-MDCK effective efflux assay (Transwell, 10 μM, 1 hour), wild-type MDCK cells; conditions: for WT ER: MDCK; for Papp AB WT: wild-type MDCK cells, apical to basolateral (A>B), 10 μM, 1 hour
Procedure, shortened: as §1

[5] = MDCK-MDR1, pH 7.4, MDR1-MDCK cells, apical to basolateral (A>B), 10 μM, 1 hour, read-out: Papp AB MDR1
[6] = pH 7.4, wild-type MDCK cells, apical to basolateral (A>B), 10 μM, 1 hour, read-out: Papp AB WT
[7] = MDCK-MDR1, pH 7.4, Papp AB MDR1

Structure (SMILES) | Papp A→B at 1 h, 10 μM [1, 5] | Papp A→B at 1 h, 10 μM [2, 6] | Papp A→B at 1 h, 10 μM [1, 7] | MDR1 EER [3] | MDR1 ER [3] | WT ER [4] | Papp A→B at 1 h, 10 μM ([2]; pH 7.4, Papp AB WT) | also measured
CC(=O)N1Cc2cc(Cl)ccc2-n2c(nnc2C2CC3(C2)CN(c2ccc(F)cn2)C3)C1 [compound 64] | < 7 ×10⁻⁶ cm/s | 10 to 20 ×10⁻⁶ cm/s | – | – | – | – | – | –
CC1c2nnc(C3CC4(C3)CN(c3ncccn3)C4)n2-c2ccc(Cl)cc2CN1C(=O)OC1CC1 (stereo not shown) [compound 171] | – | – | 10 to 20 ×10⁻⁶ cm/s | + | + | ++++ | > 20 ×10⁻⁶ cm/s | –
CC1c2nnc(C3CC4(C3)CN(c3ccc(F)cn3)C4)n2-c2ccc(Cl)cc2CN1C(=O)OC1CC1 (single isomer, unassigned) [Cpd 191A] | – | – | – | – | – | – | – | Papp AB MDR1 [3]: ++++ ((++++) denotes >20 (10^-6 cm/sec)); Papp AB WT [4]: ++++ ((++++) denotes >20 (10^-6 cm/sec))
COC(=O)N1Cc2cc(Cl)ccc2-n2c(C3CC4(C3)CN(c3ncc(F)cn3)C4)nnc2C1C (stereo not shown) [compound 170] | – | – | 10 to 20 ×10⁻⁶ cm/s | + | + | ++++ | > 20 ×10⁻⁶ cm/s | –
CC1c2nnc(C3CC4(C3)CN(c3ccc(F)cn3)C4)n2-c2ccc(Cl)cc2CN1C(=O)C(C)(C)F (single isomer, unassigned) [Cpd 178A] | – | – | – | – | – | – | – | Papp AB MDR1 [3]: ++++ ((++++) denotes >20 (10^-6 cm/sec)); Papp AB WT [4]: ++++ ((++++) denotes >20 (10^-6 cm/sec))
CCOC(=O)N1Cc2cc(Cl)ccc2-n2c(C3CC4(C3)CN(c3ncccn3)C4)nnc2C1C (stereo not shown) [compound 168] | – | – | 7 to 10 ×10⁻⁶ cm/s | + | + | +++ | > 20 ×10⁻⁶ cm/s | –
CCOC(=O)N1Cc2cc(Cl)ccc2-n2c(C3CC4(C3)CN(c3ccc(F)cn3)C4)nnc2C1C (single isomer, unassigned) [Cpd 169A] | – | – | – | – | – | – | – | Papp AB MDR1 [3]: ++++ ((++++) denotes >20 (10^-6 cm/sec)); Papp AB WT [4]: ++++ ((++++) denotes >20 (10^-6 cm/sec))
COC(=O)N1Cc2cc(Cl)ccc2-n2c(C3CC4(C3)CN(c3cnccn3)C4)nnc2C1C (stereo not shown) [compound 165] | 7 to 10 ×10⁻⁶ cm/s | > 20 ×10⁻⁶ cm/s | – | – | – | – | – | –
CC1c2nnc(C3CC4(C3)CN(c3ncc(F)cn3)C4)n2-c2ccc(Cl)cc2CN1C(=O)OC(CF)CF (stereo not shown) [compound 194] | – | – | 10 to 20 ×10⁻⁶ cm/s | + | + | ++++ | 10 to 20 ×10⁻⁶ cm/s | –
CCOC(=O)N1Cc2cc(Cl)ccc2-n2c(C3CC4(C3)CN(c3ncccn3)C4)nnc2C1C (single isomer, unassigned) [Cpd 168A] | – | – | – | – | – | – | – | Papp AB MDR1 [3]: ++++ ((++++) denotes >20 (10^-6 cm/sec)); Papp AB WT [4]: ++++ ((++++) denotes >20 (10^-6 cm/sec))
Clc1ccc2c(c1)CN(C1COC1)Cc1nnc(C3CC4(C3)CN(c3ccccn3)C4)n1-2 [compound 57, 8-chloro-5-(oxetan-3-yl)-1-(2-(pyridin-2-yl)-2-azaspiro[3.3]heptan-6-yl)-5,6-dihydro-4H-benzo[f][1,2,4]triazolo[4,3-a][1,4]diazepine] | – | – | < 7 ×10⁻⁶ cm/s | + | + | +++ | > 20 ×10⁻⁶ cm/s | –
CCOC(=O)N1Cc2cc(Cl)ccc2-n2c(C3CC4(C3)CN(c3ccc(F)cn3)C4)nnc2C1C (stereo not shown) [compound 169] | > 20 ×10⁻⁶ cm/s | > 20 ×10⁻⁶ cm/s | – | – | – | – | – | –
COC(=O)N1Cc2cc(Cl)ccc2-n2c(nnc2C2CC3(C2)CN(c2ccccn2)C3)C1 [compound 70] | 10 to 20 ×10⁻⁶ cm/s | > 20 ×10⁻⁶ cm/s | – | – | – | – | – | –
CC1c2nnc(C3CC4(C3)CN(c3ncccn3)C4)n2-c2ccc(Cl)cc2CN1C(=O)OC(CF)CF (single isomer, unassigned) [Cpd 202A] | – | – | – | – | – | – | – | Papp AB MDR1 [3]: + ((+) denotes an apparent permeability <7 (10^-6 cm/sec)); Papp AB WT [4]: ++++ ((++++) denotes >20 (10^-6 cm/sec))
CCC(=O)N1Cc2cc(Cl)ccc2-n2c(nnc2C2CC3(C2)CN(c2ccc(F)cn2)C3)C1 [compound 72] | < 7 ×10⁻⁶ cm/s | > 20 ×10⁻⁶ cm/s | – | – | – | – | – | –
COC(=O)N1Cc2cc(Cl)ccc2-n2c(nnc2C2CC3(C2)CN(c2ccc(F)cn2)C3)C1 [compound 61] | 10 to 20 ×10⁻⁶ cm/s | > 20 ×10⁻⁶ cm/s | – | – | – | – | – | –
CC1c2nnc(C3CC4(C3)CN(c3ncc(F)cn3)C4)n2-c2ccc(Cl)cc2CN1C(=O)OC1(C)CC1 (stereo not shown) [compound 173] | > 20 ×10⁻⁶ cm/s | > 20 ×10⁻⁶ cm/s | – | – | – | – | – | –
CCOC(=O)N1Cc2cc(Cl)ccc2-n2c(nnc2C2CC3(C2)CN(c2ccc(F)cn2)C3)C1 [compound 69] | > 20 ×10⁻⁶ cm/s | > 20 ×10⁻⁶ cm/s | – | – | – | – | – | –
CC(C)C(=O)N1Cc2cc(Cl)ccc2-n2c(nnc2C2CC3(C2)CN(c2ccc(F)cn2)C3)C1 [compound 63] | < 7 ×10⁻⁶ cm/s | > 20 ×10⁻⁶ cm/s | – | – | – | – | – | –
O=C(C1CC1)N1CC2(CC(c3nnc4n3-c3ccc(Cl)cc3CN(C(=O)C3(F)CC3)C4)C2)C1 [compound 136] | – | – | < 7 ×10⁻⁶ cm/s | + | + | + | 10 to 20 ×10⁻⁶ cm/s | –
